# Results: publication PMC6934184, “Selective DNA-PKcs inhibition extends the therapeutic index of localized radiotherapy and chemotherapy” (The Journal of Clinical Investigation, 2019)
# Target: T1, EPHA1 (Homo sapiens, UniProt P21709)
# T1 construct: purchased Thermo Fisher Scientific (Life Technologies) SelectScreen
# Assay: SelectScreen Z'LYTE
# Type: biochemical
# In short: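 SelectScreen broad panel; activity (Z'LYTE, Adapta) plus binding formats. ATP: Km app for CSF1R Z'LYTE; 10 for CAMK1 Adapta. Readout = % per kinase.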
# T1 sequence (P21709 26-976): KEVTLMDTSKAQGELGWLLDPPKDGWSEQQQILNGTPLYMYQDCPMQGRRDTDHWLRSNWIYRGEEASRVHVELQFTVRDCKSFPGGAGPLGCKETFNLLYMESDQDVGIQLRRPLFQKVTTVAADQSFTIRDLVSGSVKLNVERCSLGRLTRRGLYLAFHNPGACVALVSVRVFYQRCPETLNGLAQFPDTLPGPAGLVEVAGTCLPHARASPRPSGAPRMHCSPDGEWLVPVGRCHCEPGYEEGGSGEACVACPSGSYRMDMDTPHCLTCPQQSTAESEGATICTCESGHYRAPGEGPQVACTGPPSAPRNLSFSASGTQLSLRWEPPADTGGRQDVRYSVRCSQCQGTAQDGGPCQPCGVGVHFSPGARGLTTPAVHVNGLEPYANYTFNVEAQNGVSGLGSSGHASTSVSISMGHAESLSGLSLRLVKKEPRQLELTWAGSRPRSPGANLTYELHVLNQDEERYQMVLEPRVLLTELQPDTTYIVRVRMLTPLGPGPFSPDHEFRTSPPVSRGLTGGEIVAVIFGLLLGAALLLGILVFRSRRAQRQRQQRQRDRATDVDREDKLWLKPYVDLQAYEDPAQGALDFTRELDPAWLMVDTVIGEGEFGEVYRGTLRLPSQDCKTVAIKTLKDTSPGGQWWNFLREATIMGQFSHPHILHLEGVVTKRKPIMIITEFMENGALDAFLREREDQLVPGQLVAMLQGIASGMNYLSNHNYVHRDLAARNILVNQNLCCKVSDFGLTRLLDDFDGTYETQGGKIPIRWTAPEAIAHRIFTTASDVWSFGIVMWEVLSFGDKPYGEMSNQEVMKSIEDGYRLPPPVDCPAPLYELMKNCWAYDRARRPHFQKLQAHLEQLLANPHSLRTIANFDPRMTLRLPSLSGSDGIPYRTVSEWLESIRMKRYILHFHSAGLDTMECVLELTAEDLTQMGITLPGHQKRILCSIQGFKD
structure (smiles),measurement,value
CN(C(=O)CN1CCOCC1)c1ccc2sc3c(-c4cccc5c(=O)cc(N6CC7CCC(C6)O7)oc45)cccc3c2c1 [NU5455],inhibition at 1 µM,2.7%
